The results in this text go back to patent US7119189B2, “Metabotropic GABA [B] receptors, receptor-specific ligands and their uses” (Novartis AG, priority 1997, dated 2006).

Entries after “also recorded” stand apart in the source; their conditions may differ. Read-outs that look alike come from different tables or passages of the source.

Experiment [1] deals with non-transfected HEK293 cells. Kind of experiment: Forskolin-stimulated cAMP formation in untransfected HEK293 cells (control). The format is cell-based.
Experiment [2] deals with GABAA, benzodiazepine, kainate, AMPA, NMDA receptors, strychnine independent binding site at NMDA receptors, muscarinic cholinergic, α1- and α2-adrenergic …. Kind of experiment: Receptor selectivity assays at 1 μM. The conditions noted are these: concentration of 1 μM. As for the experimental part: […]. The incubation is terminated by filtration through GF/B Whatman glass fibre filters. […]. The compound is therefore selective for GABAB receptors. […].

Experiment [3] deals with GABAB receptors in membranes from rat cerebral cortex (Rattus norvegicus, UniProt Q9Z0U4). Kind of experiment: biochemical. The format is binding.
Sequence of GABAB receptors in membranes from rat cerebral cortex (Q9Z0U4 164-960 limits assumed): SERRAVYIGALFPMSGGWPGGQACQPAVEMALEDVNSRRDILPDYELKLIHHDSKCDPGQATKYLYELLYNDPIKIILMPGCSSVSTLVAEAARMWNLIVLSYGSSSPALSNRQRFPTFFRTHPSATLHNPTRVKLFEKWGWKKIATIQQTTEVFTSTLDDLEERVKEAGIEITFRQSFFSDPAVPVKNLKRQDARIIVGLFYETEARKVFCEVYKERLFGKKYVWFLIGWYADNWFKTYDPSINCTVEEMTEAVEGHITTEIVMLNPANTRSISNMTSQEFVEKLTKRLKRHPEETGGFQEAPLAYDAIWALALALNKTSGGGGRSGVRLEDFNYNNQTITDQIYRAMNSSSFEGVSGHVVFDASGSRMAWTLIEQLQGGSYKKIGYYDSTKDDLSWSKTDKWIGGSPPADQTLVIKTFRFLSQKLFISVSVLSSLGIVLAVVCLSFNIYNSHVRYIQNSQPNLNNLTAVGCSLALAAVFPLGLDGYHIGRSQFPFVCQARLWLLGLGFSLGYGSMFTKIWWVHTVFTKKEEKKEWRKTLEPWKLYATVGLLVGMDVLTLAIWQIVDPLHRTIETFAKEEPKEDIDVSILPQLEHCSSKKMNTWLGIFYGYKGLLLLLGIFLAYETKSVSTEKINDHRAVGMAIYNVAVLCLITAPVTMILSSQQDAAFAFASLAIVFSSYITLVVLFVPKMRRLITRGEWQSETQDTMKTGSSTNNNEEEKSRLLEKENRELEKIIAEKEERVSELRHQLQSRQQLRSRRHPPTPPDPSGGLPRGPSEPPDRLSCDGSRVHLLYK
Sequence of GABAB receptors in membranes from rat cerebral cortex (O88871 41-940, further chain): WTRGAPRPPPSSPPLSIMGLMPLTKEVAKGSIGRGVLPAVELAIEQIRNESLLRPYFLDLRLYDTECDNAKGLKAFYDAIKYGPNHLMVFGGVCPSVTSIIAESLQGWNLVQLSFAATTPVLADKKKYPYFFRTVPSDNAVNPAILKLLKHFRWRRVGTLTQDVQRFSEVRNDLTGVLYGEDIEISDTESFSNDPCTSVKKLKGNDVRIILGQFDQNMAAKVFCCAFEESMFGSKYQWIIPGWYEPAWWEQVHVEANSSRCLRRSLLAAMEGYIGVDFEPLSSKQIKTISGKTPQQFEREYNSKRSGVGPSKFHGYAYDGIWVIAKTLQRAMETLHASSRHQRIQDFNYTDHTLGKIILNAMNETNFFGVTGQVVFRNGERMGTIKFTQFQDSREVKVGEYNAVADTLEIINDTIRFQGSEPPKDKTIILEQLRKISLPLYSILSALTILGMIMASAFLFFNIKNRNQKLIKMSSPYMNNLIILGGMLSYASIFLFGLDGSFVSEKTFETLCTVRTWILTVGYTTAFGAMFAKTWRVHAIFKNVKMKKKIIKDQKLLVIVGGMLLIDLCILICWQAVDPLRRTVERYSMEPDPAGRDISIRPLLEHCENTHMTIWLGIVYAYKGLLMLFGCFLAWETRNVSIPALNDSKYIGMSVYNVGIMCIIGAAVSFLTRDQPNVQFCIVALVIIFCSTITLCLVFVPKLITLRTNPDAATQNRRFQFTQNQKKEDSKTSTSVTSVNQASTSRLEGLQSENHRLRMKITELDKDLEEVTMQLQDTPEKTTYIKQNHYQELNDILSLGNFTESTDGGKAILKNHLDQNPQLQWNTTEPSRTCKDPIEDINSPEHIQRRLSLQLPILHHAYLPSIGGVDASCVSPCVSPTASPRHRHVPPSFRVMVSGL
Experiment [4] deals with T1, recombinant GABABR1a receptors in membranes from COS 1 cells (Rattus norvegicus, UniProt Q9Z0U4).
T1 construct: The protein expressed from the 4,376 bp cDNA clone has an apparent molecular mass of about 120 kDa; expressed in transfected cells; host or cells: COS1 cells, transient transfection with the cDNA clone in pcDNAI
T1 sequence (Q9Z0U4 20-960): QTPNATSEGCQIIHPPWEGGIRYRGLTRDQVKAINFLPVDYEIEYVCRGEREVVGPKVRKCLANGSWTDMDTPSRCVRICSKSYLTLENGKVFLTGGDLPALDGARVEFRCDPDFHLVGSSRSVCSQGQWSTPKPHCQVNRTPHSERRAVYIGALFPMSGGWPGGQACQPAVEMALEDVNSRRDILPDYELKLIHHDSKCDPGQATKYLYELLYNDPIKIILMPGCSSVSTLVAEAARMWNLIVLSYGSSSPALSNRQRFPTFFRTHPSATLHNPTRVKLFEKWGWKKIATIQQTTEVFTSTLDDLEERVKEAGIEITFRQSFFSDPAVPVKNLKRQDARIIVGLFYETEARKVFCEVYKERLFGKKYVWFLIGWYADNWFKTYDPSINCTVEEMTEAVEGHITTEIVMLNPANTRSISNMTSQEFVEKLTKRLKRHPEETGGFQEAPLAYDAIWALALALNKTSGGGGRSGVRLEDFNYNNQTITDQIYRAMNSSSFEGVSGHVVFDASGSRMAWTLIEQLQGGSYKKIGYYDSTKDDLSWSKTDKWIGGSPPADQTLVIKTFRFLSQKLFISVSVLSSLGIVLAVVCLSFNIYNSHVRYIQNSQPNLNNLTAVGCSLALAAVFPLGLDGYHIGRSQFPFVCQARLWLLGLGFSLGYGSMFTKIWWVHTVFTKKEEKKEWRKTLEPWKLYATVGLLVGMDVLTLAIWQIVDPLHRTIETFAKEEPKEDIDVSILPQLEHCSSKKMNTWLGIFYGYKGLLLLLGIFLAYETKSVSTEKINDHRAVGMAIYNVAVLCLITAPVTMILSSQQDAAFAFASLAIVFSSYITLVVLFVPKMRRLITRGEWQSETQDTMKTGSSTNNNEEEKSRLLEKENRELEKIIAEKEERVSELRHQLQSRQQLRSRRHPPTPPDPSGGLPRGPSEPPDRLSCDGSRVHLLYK
Kind of experiment: biochemical. The format is binding.

Experiment [5] relates to native GABAB receptors (130K and 100K proteins). To be noted: for competition with / displacement of [125I]CGP71872 at native receptors: FIG. 4b; for [125I]CGP71872 labelling in the presence of excess unlabelled antagonist: 1 μM (10^−6 M) competitor. (In general: In a radioligand displacement assay an active substance lowers the binding of a labelled ligand.)
Method: The incubation is terminated by centrifugation at 20 000×g for 10 min at 4° C. This step removed free unbound photoaffinity label. […] The suspension is centrifuged at 20 000×g for 10 min and resuspended at a concentration of 8 mg/ml protein in buffer. […] The labelled membranes could be stored at −80° C.
For another experiment, the target named is T2, GABABR1a (Rattus norvegicus, UniProt Q9Z0U4).
T2 construct: The ability of GABABR1a stably expressed in HEK293 cells to reduce forskolin-stimulated cAMP accumulation is analysed; expressed in transfected cells
T2 sequence (Q9Z0U4 20-960): as above
Kind of experiment: Forskolin-stimulated cAMP accumulation in HEK293 cells stably expressing GABABR1a. The format is cell-based. As for the experimental part:
HEK293 cells stably expressing GABABR1a are treated with 20 μM forskolin (Fsk) to stimulate cAMP formation (100%). […] Bars represent mean values+S.E.M. of at least three independent experiments performed in quadruplicate.
GABAB receptors are described to inhibit adenylate cyclase activity, stimulate phospholipase A2, activate K^+-channels, inactivate voltage-dependent Ca^2+-channels and to modulate inositol phospholipid hydrolysis. As GABABR1a and -b have identical sequence in all domains predicted to be intracellular they are expected to be able to couple to the same effector systems. […] The ability of GABABR1a stably expressed in HEK293 cells to reduce forskolin-stimulated cAMP accumulation is analysed (FIG. 5). We chose concentrations of forskolin and L-baclofen that should produce a maximal effect.

In the case of `NC[C@H](CC(=O)O)c1ccc(Cl)cc1` [L-baclofen], in experiment [1], the “inhibition of forskolin-stimulated cAMP formation in untransfected cells” value is “does not inhibit; also recorded: No L-baclofen response”.

Take `C[C@@H](NC[C@H](O)CP(=O)(O)CCCCCNC(=O)CCc1ccc(O)c(I)c1)c1cccc(C(=O)O)c1` [CGP 64213]: the “activity in other receptor assays” value in experiment [2] is “inactive”.

Consider `CCOC(OCC)P(=O)(O)CCCN` [CGP 35348], for which the IC50 (as a rule, the concentration at which inhibition is half-maximal) in experiment [3] is 9.3 µM; in experiment [4] it was 20 µM. Further, the “competition with / displacement of [125I]CGP71872 at native receptors” value (shortened to “competition with / displacement”) in experiment [5] was “effective displacers”.

For pertussis toxin, the “effect of preincubation on the L-baclofen response / modulation of adenylate cyclase” value on GABABR1a (10 ng/ml for 15–20 h) was “sensitive; also recorded: completely abolishes the effect of L-baclofen”.

Consider `C[C@H](NC[C@H](O)CP(=O)(O)CC1CCCCC1)c1ccc(Cl)c(Cl)c1` [CGP 54626A], for which the IC50 in experiment [4] (recombinant GABABR1a expressed in COS1 cells, read-out: Inhibition of [125I]CGP 64213 binding, COS1 cells IC50) worked out at 0.0016 µM. Moreover, the “effect on the L-baclofen inhibition of cAMP accumulation” value at GABABR1a (10 μM CGP54626A (FIG. 5), 300 μM L-baclofen) is “antagonised”. For the same compound, in experiment [5], the “[125I]CGP71872 labelling in the presence of excess unlabelled antagonist” value was “no radioactivity is bound to the membranes” and the “competition with / displacement” value is on record as “effective displacers”. In experiment [5] (listed as CGP54626A), the “[125I]CGP71872 labelling in the presence of excess unlabelled antagonist” value is reported as “inhibited”.

Turning to `NCCC[PH](=O)O` [CGP 27492 (APPA), 3-aminopropyl-phosphinic acid], in experiment [5], the “competition with / displacement” value is recorded as “compete”.
